Measurements taken from patent US20130245026A1, “TREATMENT OF CANCER WITH TOR KINASE INHIBITORS” (SIGNAL PHARMACEUTICALS, LLC, priority 2012, published 2013).
Where two headings read alike, the source gives them in different places.

Columns and labels:
[1] = test system: patient-derived tumor cells; test: Proliferation assay using patient tumor cells (EdU incorporation, 3D matrix); format: cell-based; details: Homo sapiens
Method: (§1) Proliferation and Apoptosis Assay Using Patient Tumor Cells.
(§2) Cryopreserved patient-derived tumor cells were resurrected from liquid nitrogen storage and conditioned on coated plates prior to drug treatment. […] The mitotic activity of the cells was assessed by measuring ethynyl […] (EdU) incorporation during S-phase. The untreated control wells received medium containing DMSO (vehicle used to dissolve each compound and EdU). […] The apoptotic activity of the cells was assessed by measuring CellEvent incorporation due to caspase 3 and 7 activation. The untreated control wells received medium containing DMSO (vehicle used to dissolve each compound and CellEvent). After conditioning, cell lines were plated on a 3D matrix in two 96-well plates. The cells were allowed to settle and form spheroid structures for 48 hours. Then, 48 hours after plating, the cells were treated with compound.
The cells were treated only on Day 1. For the last 48 hours of the treatment, EdU was added to measure the cell proliferation. At the end of the treatment, plates were fixed, permeabilized and stained for EdU uptake (proliferation marker) and DAPI (nuclear marker). Plates were imaged at 4× magnification using ImageXpress Micro (Molecular Devices, Sunnyvale, Calif.). Seven z-stacks at 5 sites per well were captured and deconvoluted to create the images for analysis. For the proliferation assay, images were analyzed using a Multi Wave Scoring Algorithm (Molecular Devices, Sunnyvale, Calif.) to quantify mean fluorescent intensities (MFI) of each well for EdU. The EdU MFI's for the treated wells were normalized to those of the untreated wells to generate the compound response curves.

[2] = test system: patient-derived tumor cells; test: Apoptosis assay using patient tumor cells (CellEvent, caspase 3 and 7); format: cell-based, human; details: concentration between 0.1-10 μM; 48 hours of treatment
Method: as §1, §2
The cells were treated only on Day 1. After 48 hours of compound treatment, CellEvent was added to measure the apoptotic activity in cells. […] For the Apoptosis assay, images were analyzed using a Multi Wavelength Scoring Algorithm (Molecular Devices, Sunnyvale, Calif.) to quantify mean fluorescent intensities (MFI) of each well for activated caspase 3 and 7 using CellEvent. The CellEvent mean fluorescence intensities (MFI) of treated wells and untreated controls were averaged and plotted.

[3] = test system: CAL-27; test: Apoptosis assay for HN cancer cell lines (Caspase 3/7-Glo); format: cell-based; details: 24 hours
Method: (§3) Apoptosis Assay for HN Cancer Cell Lines.
(§4) Prior to testing, cells were grown and expanded in culture flasks to provide sufficient amounts of starting material. Cells were then diluted to their desired densities and added directly to compound-spotted 384-well plates. Cells were allowed to grow for 24 hours in 5% CO2 at 37° C. The apoptotic response was assessed by quantifying the activities of caspase 3 and caspase 7 (Caspase 3/7-Glo) in treated cells and control cells at the 24-hour time point. All data was normalized and represented as a value relative to the DMSO-treated cells. Results were then expressed as CalX, which is the minimum compound concentration required to double the levels of caspase 3/7 relative to those of the DMSO-treated cells during their treatment period.

[4] = test system: SCC-25; test: as above; format: cell-based; details: 24 hours
Method: as §3, §4

[5] = test system: RPMI-2650; test: as above; format: cell-based; details: 24 hours
Method: as §3, §4

[6] = test system: Detroit562; test: as above; format: cell-based; details: 24 hours
Method: as §3, §4

[7] = test system: SCC-9; test: as above; format: cell-based; details: 24 hours
Method: as §3, §4

[8] = test system: A253; test: as above; format: cell-based; details: 24 hours
Method: as §3, §4

[9] = test system: BHY; test: as above; format: cell-based; details: 24 hours
Method: as §3, §4

[10] = test system: FADU; test: as above; format: cell-based; details: 24 hours
Method: as §3, §4

[11] = test system: SCC-15; test: as above; format: cell-based; details: 24 hours
Method: as §3, §4

[12] = test system: CAL-33; test: as above; format: cell-based; details: 24 hours
Method: as §3, §4

[13] = test system: HN; test: as above; format: cell-based; details: minimum concentration to double caspase 3/7 vs DMSO, 24 hours
Method: as §3, §4

[14] = test system: CAL-27; test: Growth inhibition assay for head and neck (HN) cancer cell lines; format: cell-based; details: Homo sapiens, 72 hours, Cell Titer-Glo
Method: (§5) Growth Inhibition Assay for Head and Neck (HN) Cancer Cell Lines.
(§6) A serial titration was performed to produce a working concentration range of 1.5 μM to 10 mM. Aliquots to produce final concentrations of 1.5 nM to 10 μM were spotted via an acoustic dispenser (EDC ATS-100) into an empty 384-well plate. […] The DMSO concentration was kept constant for a final assay concentration of 0.1% DMSO. Plates were replicated for use with different cell lines and testing periods. After compound plate replication, all plates were sealed (Agilent ThermoLoc) and stored at −20° C. for up to 1 month. […] When ready for testing, plates were removed from the freezer, thawed, and unsealed just prior to the addition of the test cells. Prior to testing, cells were grown and expanded in culture flasks to provide sufficient amounts of starting material. Cells were then diluted to the appropriate densities and added directly to the compound-spotted 384-well plates. Cells were allowed to grow for 72 hours at 37° C./5% CO2. At the time when compound was added (t0), initial cell number was assessed via a viability assay (Cell Titer-Glo) by quantifying the level of luminescence generated by ATP present in viable cells. After 72 hours, cell viability of compound-treated cells was assessed via Cell Titer-Glo and luminescence measurement. […] A control cell line (the lung tumor cell line, A549) was included in each of the assays. The compound response against this control cell line was monitored closely to enable comparison of the data generated through the assay period. All data were normalized and presented as a percentage of the DMSO-treated cells. Results were then expressed as a GI50 value. The GI50 value corrects for the cell count at time zero.

[15] = test system: SCC-25; test: as above; format: cell-based; details: Homo sapiens, 72 hours, Cell Titer-Glo
Method: as §5, §6

[16] = test system: RPMI-2650; test: as above; format: cell-based; details: Homo sapiens, 72 hours, Cell Titer-Glo
Method: as §5, §6

[17] = test system: Detroit562; test: as above; format: cell-based; details: Homo sapiens, Detroit 562, 72 hours, Cell Titer-Glo
Method: as §5, §6

[18] = test system: SCC-9; test: as above; format: cell-based; details: Homo sapiens, 72 hours, Cell Titer-Glo
Method: as §5, §6

[19] = test system: A253; test: as above; format: cell-based; details: Homo sapiens, 72 hours, Cell Titer-Glo
Method: as §5, §6

[20] = test system: BHY; test: as above; format: cell-based; details: 72 hours, Cell Titer-Glo
Method: as §5, §6

[21] = test system: FADU; test: as above; format: cell-based; details: Homo sapiens, 72 hours, Cell Titer-Glo
Method: as §5, §6

[22] = test system: SCC-15; test: as above; format: cell-based; details: Homo sapiens, 72 hours, Cell Titer-Glo
Method: as §5, §6

[23] = test system: CAL-33; test: as above; format: cell-based; details: Homo sapiens, 72 hours, Cell Titer-Glo
Method: as §5, §6

[24] = test system: HN; test: as above; format: cell-based; details: 72 h
Method: as §5, §6

[25] = Table 1, minimum concentration to double caspase 3/7 vs DMSO
[26] = minimum concentration to double caspase 3/7 vs DMSO
[27] = corrected for cell count at time zero

Question: For `CCN1C(=O)CNc2ncc(-c3ccc(-c4nc[nH]n4)nc3C)nc21` [Compound 1, 1-ethyl-7-(2-methyl-6-(1H-1,2,4-triazol-3-yl)pyridin-3-yl)-3,4-dihydropyrazino[2,3-b]pyrazin-2(1H)-one], which IC50 ([1]; Unknown, Left palate, read-out: Prolif IC50) is on record?
Answer: 547 nM

Question: What about the IC50 ([1]; person, H&N carcinoma, Left superior segment, read-out: Prolif IC50) of the same compound?
Answer: 260 nM

Question: And the IC50 ([1]; person, H&N carcinoma, Lung, read-out: Prolif IC50)?
Answer: 342 nM

Question: What about the IC50 ([1]; person, Larynx carcinoma, Left side neck, read-out: Prolif IC50) of the same compound?
Answer: 103 nM

Question: What about the IC50 ([1]; person, Squamous carcinoma H&N, Neck, read-out: Prolif IC50) of the same compound?
Answer: 1720 nM

Question: And the IC50 ([1]; person, Squamous carcinoma H&N, Right lower lobe lung, read-out: Prolif IC50)?
Answer: 139 nM

Question: What about the IC50 ([1]; person, Squamous carcinoma H&N, Right nasal, read-out: Prolif IC50) of the same compound?
Answer: 240 nM

Question: And the IC50 ([1]; person, Squamous cell H&N, Cervical lymph node, read-out: Prolif IC50)?
Answer: 146 nM

Question: And the IC50 ([1]; person, Squamous cell H&N, Left chest wall, read-out: Prolif IC50)?
Answer: 157 nM

Question: What about the IC50 ([1]; person, Squamous cell H&N, Left neck lymph node, read-out: Prolif IC50) of the same compound?
Answer: 499 nM

Question: And the IC50 ([1]; person, Squamous cell H&N, Left neck, cervical, read-out: Prolif IC50)?
Answer: 429 nM

Question: And the IC50 ([1]; person, Squamous cell H&N, Left tonsil, read-out: Prolif IC50)?
Answer: 162 nM

Question: What about the IC50 ([1]; person, Squamous cell H&N, Mass, left latisimal muscle, read-out: Prolif IC50) of the same compound?
Answer: 115 nM

Question: And the IC50 ([1]; person, Squamous cell H&N, Mass, skull base excision, read-out: Prolif IC50)?
Answer: 157 nM

Question: And the IC50 ([1]; person, Squamous cell H&N, Pleural fluid, read-out: Prolif IC50)?
Answer: 536 nM

Question: What about the IC50 ([1]; person, Squamous cell H&N, Right lower lobe lung, read-out: Prolif IC50) of the same compound?
Answer: 322 nM

Question: What about the IC50 ([1]; person, Squamous cell H&N, Right pleural biopsy, read-out: Prolif IC50) of the same compound?
Answer: 441 nM

Question: What about the IC50 ([1]; person, Squamous cell tongue, Right axilliary node, read-out: Prolif IC50) of the same compound?
Answer: 318 nM

Question: What about the IC50 ([1]; person, Tongue, Left neck mass, read-out: Prolif IC50) of the same compound?
Answer: 377 nM

Question: What about the IC50 ([1]; span over all patient tumor cell samples of Table 3, read-out: inhibition of proliferation of patient tumor cells, IC50) of the same compound?
Answer: 100 to 1800 nM

Question: And the “apoptosis (activated caspase 3 and 7, CellEvent MFI)” value [2]?
Answer: Apoptosis was observed in some patient-derived samples

Question: And the Cal X [3, 25]?
Answer: > 10 µM

Question: And the CalX [3, 26]?
Answer: >10 µM

Question: What about the Cal X [4, 25] of the same compound?
Answer: > 10 µM

Question: And the CalX [4, 26]?
Answer: >10 µM

Question: What about the Cal X [5, 25] of the same compound?
Answer: > 10 µM

Question: And the CalX [5, 26]?
Answer: >10 µM

Question: What about the Cal X [6, 25] of the same compound?
Answer: > 10 µM

Question: And the CalX [6, 26]?
Answer: >10 µM

Question: And the Cal X [7, 25]?
Answer: > 10 µM

Question: What about the CalX [7, 26] of the same compound?
Answer: >10 µM

Question: What about the Cal X [8, 25] of the same compound?
Answer: > 10 µM

Question: And the CalX [8, 26]?
Answer: >10 µM

Question: What about the Cal X [9, 25] of the same compound?
Answer: > 10 µM

Question: What about the CalX [9, 26] of the same compound?
Answer: >10 µM

Question: And the Cal X [10, 25]?
Answer: > 10 µM

Question: What about the CalX [10, 26] of the same compound?
Answer: >10 µM

Question: And the Cal X [11, 25]?
Answer: > 10 µM

Question: What about the CalX [11, 26] of the same compound?
Answer: >10 µM

Question: And the Cal_X ([12]; Table 1, minimum concentration to double caspase 3/7 vs DMSO, in µM)?
Answer: 0.8764

Question: What about the CalX [12, 26] of the same compound?
Answer: 0.8764 µM

Question: What about the CalX [13] of the same compound?
Answer: >10 µM

Question: And the IC50 [14]?
Answer: 177 nM

Question: And the GI50 [14, 27]?
Answer: 144 nM

Question: What about the IC50 [15] of the same compound?
Answer: 179 nM

Question: And the GI50 [15, 27]?
Answer: 127 nM

Question: What about the IC50 [16] of the same compound?
Answer: 389 nM

Question: And the GI50 [16, 27]?
Answer: 219 nM

Question: And the IC50 [17]?
Answer: 254 nM

Question: What about the GI50 [17, 27] of the same compound?
Answer: 169 nM

Question: And the IC50 [18]?
Answer: 362 nM

Question: And the GI50 [18, 27]?
Answer: 129 nM

Question: What about the IC50 [19] of the same compound?
Answer: 378 nM

Question: And the GI50 [19, 27]?
Answer: 303 nM

Question: What about the IC50 [20] of the same compound?
Answer: 210 nM

Question: And the GI50 [20, 27]?
Answer: 39.5 nM

Question: And the IC50 [21]?
Answer: 1160 nM

Question: And the GI50 [21, 27]?
Answer: 792 nM

Question: And the IC50 [22]?
Answer: 679 nM

Question: What about the GI50 [22, 27] of the same compound?
Answer: 56.8 nM

Question: What about the IC50 [23] of the same compound?
Answer: 69.8 nM

Question: And the GI50 [23, 27]?
Answer: 42.7 nM

Question: What about the GI50 [24] of the same compound?
Answer: 117 nM

Question: And the IC50 [24]?
Answer: 178 nM
